Tests used:
[1] = system: left tumor-derived cells of the GBM9 patient; assay: PDC-based chemical screening (ATP cell viability, dose-response AUC), left tumor; design: species or system human; conditions: GBM9 left tumor PDCs
Procedure: (§1) According to one embodiment, the measuring of drug sensitivity of each sample by subjecting the multiple samples to drug screening may include obtaining a cell viability curve of each sample according to a dose of each drug; and calculating an area under the curve.
(§2) GBM9 patient had tumors in the right and left frontal lobes of the brain, respectively. In this regard, 40 kinds of anticancer agents were administered to samples collected from the respective tumors, and tumor cell viability was examined.
(§3) When a curve of tumor cell viability vs drug dose is plotted, an area under the curve (AUC) may be used as an index of drug sensitivity. […]
(§4) PDCs grown in serum-free medium were seeded in 384 well plates at a density of 500 cells per well in duplicate or triplicate. […] After 6 days of incubation at 37° C. in a 5% CO2 humidified incubator, cell viability was analyzed using an adenosine triphosphate (ATP) monitoring system based on firefly luciferase (ATPLite™ 1step, PerkinElmer). At this time, viable cells were estimated using an EnVision Multilabel Reader (PerkinElmer). […] DRC fitting was performed using GraphPad Prism 5 (GraphPad) and evaluated by measuring an area under the curve (AUC) of dose response curve. After normalization, best-fit lines were determined and the AUC value of each curve was calculated using a GraphPad Prism. […]

[2] = system: right tumor-derived cells of the GBM9 patient; assay: PDC-based chemical screening (ATP cell viability, dose-response AUC), right tumor; design: species or system human; conditions: GBM9 right tumor PDCs
Procedure: as §1, §2, §3, §4

[3] = 6 days, 20 μM to 4.88 nM, FIG. 6

Nc1cc(C(F)(F)F)c(-c2cc(N3CCOCC3)nc(N3CCOCC3)n2)cn1 [BKM120, Buparlisib]
survival rate of tumor cells with increasing drug dose [1, 3]: survival rates of the two tumors decreased | area under the curve (AUC) of cell viability vs dose (low AUC = high drug sensitivity) ([1]; FIG. 6, FIG. 7): relatively low | survival rate of tumor cells with increasing drug dose [2, 3]: survival rates of the two tumors decreased | area under the curve (AUC) of cell viability vs dose (low AUC = high drug sensitivity) ([2]; FIG. 6, FIG. 7): relatively low

Reference: US20210087620A1, “Target Gene Identifying Method for Tumor Treatment” (Samsung Life Public Welfare Foundation Samsung Life Public …, priority 2017, published 2021)
